Experimental data taken from patent publication US20260297105A1, “RAF-MEK PROTEIN COMPLEX MODULATORS AND METHODS OF USE THEREOF” (GANDEEVA THERAPEUTICS, INC., priority 2023, published 2026).
pEC50, pIC50: −log10 of the molar value. Read-outs that look alike come from different tables or passages of the source.

Columns and labels:
[1] = test system: BRAF-MEK1; assay: BRAF-MEK TR-FRET assay, stabilization of MEK1 and BRAF interaction; assay type: binding; conditions: 4 nM BRAF, 10 nM MEK, 100 μM ATP, 1 hr at 25° C., read-out: BRAF-MEK TR-FRET Assay (EC50, fold stabilization)
From the text: (§1) Protein expression and purification: BRAF (445-723) with N-term His-tag and C-term StrepII tag was expressed using the Expi293 system (ThermoFisher) and purified using Strep-Tactin® XT-Superflow (IBA) chromatography. ERK1 (full-length) with N-term His-tag was expressed in Rosetta DE3 cells (Millipore) and purified using HisTrap HP (Cytiva) and Superdex 200 (Cytiva) column chromatography. Full-length MEK1 for TR-FRET assays with N-term His-tag was expressed in BL21DE3 cells (ThermoFisher) and purified using HisTrap HP (Cytiva) and Superdex 200 (Cytiva) column chromatography.
Efficacy of exemplary compounds in stabilization of MEK1 and BRAF interaction: Compound stabilization of BRAF-MEK interaction was evaluated using TR-FRET (Time Resolved Fluorescence Energy Transfer). The FRET assay consisted of His-tagged MEK1 (produced in-house), GST-tagged BRAF (SignalChem, B08-11G), Anti His-Tb Cryptate donor, and Anti GST-XL665 acceptor fluorophores (PerkinElmer) to generate FRET signal upon BRAF-MEK1 binding. Compounds were prepared from DMSO stocks in assay buffer (50 mM Tris pH 7.5, 150 mM NaCl, 1 mM DTT, 0.05% Tween-20, 5 mM MgCl2, and 100 μM ATP) and incubated with 4 nM BRAF and 10 nM MEK for 1 hr at 25° C. 1 ng Anti His-Tb Cryptate/20 ng Anti GST-XL665 premix was then added and incubated for 1 hr at 25° C. TR-FRET was measured using Cytation5 microplate reader (Agilent) using Ex/Em=340/620 nm and Ex/Em=340/665 nm to determine the FRET ratio. Fold stabilization was calculated as FRET signal of treated well/DMSO control. Fold stabilization as a function of compound concentration from 2 replicate wells was fit with a 4-parameter logistic curve equation using GraphPad Prism or CDD Vault to derive EC50 values.
(§2) In this table, for the BRAF ADP Glo kinase assay, “A” indicates IC50 of less than 5 nM; “B” indicates IC50 of between 5 nM to 50 nM; and “C” indicates IC50 of between 50 nM to 500 nM. “D” indicates IC50 of greater than 500 nM. For the BRAF-MEK TR-FRET assay, “A” indicates EC50 of less than 50 nM; “B” indicates EC50 of between 50 nM to 200 nM; and “C” indicates EC50 of between 200 nM to 1 μM. “D′” indicates EC50 of greater than 1 μM. For the AlphaLisa P-ERK assay, “A” indicates IC50 of less than 1 nM; “B” indicates IC50 of between 1 nM to 10 nM; and “C” indicates IC50 of between 10 nM to 100 nM. “D” indicates IC50 of greater than 100 nM. For the cell viability assay, “A” indicates IC50 of less than 1 nM; “B” indicates IC50 of between 1 nM to 10 nM; and “C” indicates IC50 of between 10 nM to 100 nM. “D” indicates IC50 of greater than 100 nM.

[2] = molecular target: T1, MEK1 (Homo sapiens, UniProt Q02750); assay: MEK1 kinase cascade assay (ADP-Glo), inhibition of MEK1 kinase activity; assay type: biochemical; conditions: 25 nM BRAF, 6.25 nM MEK1, 0.5 μM ERK, 1 mM ATP; 20 min preincubation, 1 hr at 25° C.; read-out: BRAF ADP Glo kinase assay V3 (IC50)
T1 construct: purchased SignalChem M02-14H
T1 sequence (Q02750 whole entry): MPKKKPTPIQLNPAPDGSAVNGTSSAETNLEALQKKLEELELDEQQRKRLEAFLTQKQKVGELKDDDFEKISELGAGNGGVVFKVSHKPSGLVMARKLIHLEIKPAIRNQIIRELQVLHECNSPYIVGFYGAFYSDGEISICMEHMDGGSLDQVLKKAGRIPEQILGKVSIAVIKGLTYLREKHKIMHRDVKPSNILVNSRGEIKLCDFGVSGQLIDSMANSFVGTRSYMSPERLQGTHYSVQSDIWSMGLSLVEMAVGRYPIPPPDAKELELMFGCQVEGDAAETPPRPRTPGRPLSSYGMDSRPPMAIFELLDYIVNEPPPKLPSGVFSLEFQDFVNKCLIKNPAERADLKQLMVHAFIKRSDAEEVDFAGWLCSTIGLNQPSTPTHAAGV
T1 sequence (P15056 445-723 partner limits assumed): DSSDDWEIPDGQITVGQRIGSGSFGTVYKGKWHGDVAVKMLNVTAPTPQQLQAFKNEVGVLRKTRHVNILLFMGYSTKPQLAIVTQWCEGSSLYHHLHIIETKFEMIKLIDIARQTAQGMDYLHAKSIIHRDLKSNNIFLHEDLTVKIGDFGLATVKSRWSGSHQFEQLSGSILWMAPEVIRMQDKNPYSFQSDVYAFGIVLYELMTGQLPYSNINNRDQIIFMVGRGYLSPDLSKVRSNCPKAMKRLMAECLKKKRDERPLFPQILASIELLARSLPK
From the text: as §1
Efficacy of exemplary compounds in inhibition of MEK1 kinase activity: The effect of compound MEK1 inhibition was evaluated using an ADP detection system for kinases, such as the ADP-Glo assay (Promega). The MEK1 kinase cascade assay consisted of 9 μL reaction volumes in 384-well white, opaque Optiplates (PerkinElmer). Compounds were prepared from DMSO stocks in assay buffer (10 mM HEPES pH 7.5, 5 mM MgCl2, 2 mM CHAPS, and 1 mM DTT) and preincubated with 25 nM BRAF for 20 mins at 25° C. prior to addition of 6.25 nM MEK1/0.5 μM ERK/1 mM ATP premix to initiate the kinase reaction. Both BRAF and ERK1 were produced in-house, and MEK1 was purchased from SignalChem (M02-14H). DMSO was kept constant at a final concentration of 1%. After a 1 hr incubation at 25° C., conversion of ATP to ADP was detected using ADP-Glo™ reagents according to the manufacturer's protocol. Luminescence was measured using a CLARIOstar microplate reader (BMG). Percent (%) Inhibition was calculated by normalizing to DMSO control (max) and 1 μM Trametinib (min). % inhibition as a function of compound concentration from 2 replicate wells was fit with a 4-parameter logistic curve equation using GraphPad Prism or CDD Vault to derive IC50 values.
as §2

`CNS(=O)(=O)Nc1nccc(CN2C(=O)Oc3cc(Oc4cccnn4)cnc3[C@H]2C)c1F` (stereo in doubt) [Compound 193, 3-{[3-fluoro-2-(methylaminosulfonylamino)-4 pyridyl]methyl}-4-methyl-7-(3-pyridazinyloxy)-3,4-dihydro-2H-1-oxa-3,5 diazanaphthalen-2-one] was tested, and the pEC50 ([1]; 60 min) was > 7.30.

In the case of `CNS(=O)(=O)Nc1cccc(CN2Cc3ccc(OC(=O)C4CC4)cc3OC2=O)c1F` [Compound 147, 3-(2-fluoro-3-((N-methylsulfamoyl)amino)benzyl)-2-oxo-3,4-dihydro-2H-benzo[e][1,3]oxazin-7-yl cyclopropanecarboxylate], the pEC50 [1] was 6.70 to 7.30.

`CNS(=O)(=O)Nc1cccc(CN2C(=O)Oc3c(ccc(Oc4ncccn4)c3F)[C@@H]2C)c1F` (single isomer, unassigned) [Compound 92, (S)-8-fluoro-3-({2-fluoro-3-(methylsulfamoyl)amino]phenyl}methyl)-4-methyl-7-(pyrimidin-2-yloxy)-3,4-dihydro-2H-1,3-benzoxazin-2-one or (R)-8-fluoro-3-({2-fluoro-3-(methylsulfamoyl)amino]phenyl}methyl)-4-methyl-7-(pyrimidin-2-yloxy)-3,4-dihydro-2H-1,3-benzoxazin-2-one] was tested, and the pIC50 [2] was 7.30 to 8.30.

`O=C1Oc2cc(Oc3ncco3)c(F)cc2C2(COC2)N1Cc1ccnc(NS(=O)(=O)C2CC2)c1F` [Compound 172, N-(3-fluoro-4-((6-fluoro-7-(oxazol-2-yloxy)-2-oxospiro[benzo[e][1,3]oxazine-4,3′-oxetan]-3(2H)-yl)methyl)pyridin-2-yl)cyclopropanesulfonamide] showed a pIC50 [2] of 6.30 to 7.30.

`CNS(=O)(=O)Nc1cccc(CN2Cc3cc(C)c(Oc4ncccn4)cc3OC2=O)c1F` [Compound 111, 3-({2-fluoro-3-[(methylsulfamoyl)amino]phenyl}methyl)-6-methyl-7-(pyrimidin-2-yloxy)-3,4-dihydro-2H-1,3-benzoxazin-2-one] showed a pIC50 [2] of 7.30 to 8.30.

For `CN(C)C(=O)Oc1ccc2c(c1)OC(=O)N(Cc1cccc(N3CCOC3=O)c1F)C2` [Compound 27, dimethylamino-3-{[2-fluoro-3-(2-oxo-1,3-oxazolidin-3-yl)phenyl]methyl}-2-oxo-3,4-dihydro-2H-1,3-benzoxazin-7-ylformylate], the pIC50 [2] was < 6.30.

Molecule `O=C1Oc2cc(Oc3cnccn3)ccc2C2(COC2)N1Cc1cccc(NS(=O)(=O)C2CC2)c1F` [Compound 69, N-(2-fluoro-3-{[2-oxo-7-(pyrazin-2-yloxy)-2,3-dihydrospiro[1,3-benzoxazine-4,3′-oxetan]-3-yl]methyl}phenyl)cyclopropanesulfonamide] has a pIC50 [2] of 6.30 to 7.30.

In the case of `CNS(=O)(=O)Nc1cccc(CN2Cc3ccc(OC4COC4)cc3OC2=O)c1F` [Compound 98, 3-{[2-fluoro-3-(methylaminosulfonylamino)phenyl]methyl}-7-(3-oxetanyloxy)-3,4-dihydro-2H-1,3-benzoxazin-2-one], the pIC50 [2] was < 6.30.

With `CNS(=O)(=O)Cc1cccc(CN2Cc3ccc(OC(=O)N(C)C)cc3OC2=O)c1F` [Compound 45, 3-(2-fluoro-3-((N-methylsulfamoyl)methyl)benzyl)-2-oxo-3,4-dihydro-2H-benzo[e][1,3]oxazin-7-yl dimethylcarbamate] the pIC50 [2] was < 6.30.

With `CNS(=O)(=O)Cc1cccc(CN2C(=O)Oc3cc(Oc4cccnn4)ccc3C23COC3)c1F` [Compound 46, 1-(2-fluoro-3-{[2-oxo-7-(pyridazin-3-yloxy)-2,3-dihydrospiro[1,3-benzoxazine-4,3′-oxetan]-3-yl]methyl}phenyl)-N-methylmethanesulfonamide] the pIC50 [2] was 6.30 to 7.30.

For `CNS(=O)(=O)Nc1cccc(CN2C(=O)Oc3c(ccc(Oc4ncccn4)c3F)[C@H]2C)c1F` (single isomer, unassigned) [Compound 93, (R)-8-fluoro-3-({2-fluoro-3-(methylsulfamoyl)amino]phenyl}methyl)-4-methyl-7-(pyrimidin-2-yloxy)-3,4-dihydro-2H-1,3-benzoxazin-2-one or (S)-8-fluoro-3-({2-fluoro-3-(methylsulfamoyl)amino]phenyl}methyl)-4-methyl-7-(pyrimidin-2-yloxy)-3,4-dihydro-2H-1,3-benzoxazin-2-one], the pIC50 [2] was 7.30 to 8.30.

For `CNS(=O)(=O)Nc1nccc(CN2C(=O)Oc3cc(Oc4ncco4)cnc3[C@@H]2C)c1F` (stereo in doubt) [Compound 190, 3-{[3-fluoro-2-(methylaminosulfonylamino)-4-pyridyl]methyl}-4-methyl-7-(1,3-oxazol-2-yloxy)-3,4-dihydro-2H-1-oxa-3,5-diazanaphthalen-2-one], the pIC50 [2] was 7.30 to 8.30.

For `CNS(=O)(=O)Nc1cccc(CN2C(=O)Oc3c(ccc(Oc4ncccn4)c3F)C23COC3)c1F` [Compound 88], the pIC50 [2] was < 6.30.

Molecule `CNS(=O)(=O)Nc1cc(F)cc(CN2C(=O)Oc3cc(Oc4ncco4)ccc3C23CCC3)c1F` [Compound 195, 3-{[2,5-difluoro-3-(methylaminosulfonylamino)phenyl]methyl}-7-(1,3-oxazol-2-yloxy)-2H,3H-spiro[1,3-benzoxazine-4,1′-cyclobutan]-2-one] has a pIC50 [2] of 6.30 to 7.30.

Work on `C[C@@H]1c2c(F)cc(Oc3cccnn3)cc2OC(=O)N1Cc1cccc(NS(=O)(=O)C2CC2)c1F` (single isomer, unassigned) [Compound 54] yielded a pIC50 [2] of 6.30 to 7.30.

Molecule `O=C1Oc2cc(Oc3cccnn3)ccc2CN1Cc1cccc(N2CCOC2=O)c1F` [Compound 26, 3-{[2-fluoro-3-(2-oxo-1,3-oxazolidin-3-yl)phenyl]methyl}-7-(3-pyridazinyloxy)-3,4-dihydro-2H-1,3-benzoxazin-2-one] has a pIC50 [2] of 6.30 to 7.30.

`O=C1Oc2cc(Oc3cccnc3)ccc2CN1Cc1cccc(NS(=O)(=O)C2CC2)c1F` [Compound 60, (cyclopropylsulfonyl)(2-fluoro-3-{[2-oxo-7-(3-pyridyloxy)-3,4-dihydro-2H-1,3-benzoxazin-3-yl]methyl}phenyl)amine] was tested, and the pIC50 [2] was 6.30 to 7.30.

With `CNS(=O)(=O)Nc1cccc(CN2Cc3ccc(Oc4ncccn4)cc3OC2=O)c1F` [Compound 157, 3-({2-fluoro-3-[(methylsulfamoyl)amino]phenyl}methyl)-7-(pyrimidin-2-yloxy)-3,4-dihydro-2H-1,3-benzoxazin-2-one] the pIC50 [2] was 7.30 to 8.30.

`CNS(=O)(=O)Nc1cccc(CN2C(=O)Oc3c(ccc(Oc4ncco4)c3F)[C@H]2C)c1F` (single isomer, unassigned) [Compound 90, (R)-8-fluoro-3-({2-fluoro-3-(methylsulfamoyl)amino]phenyl}methyl)-4-methyl-7-(1,3-oxazol-2-yloxy)-3,4-dihydro-2H-1,3-benzoxazin-2-one or (S)-8-fluoro-3-({2-fluoro-3-(methylsulfamoyl)amino]phenyl}methyl)-4-methyl-7-(1,3-oxazol-2-yloxy)-3,4-dihydro-2H-1,3-benzoxazin-2-one] showed a pIC50 [2] of 7.30 to 8.30.
